The test system of experiment [1] is Myzus persicae. Kind of experiment: Myzus persicae spray test (Chinese cabbage leaf discs). It is filed as in vivo. The note with it: foliar, 120 h, 500 g/ha, after 5-6 days, read-out: efficacy. The method, then:
Myzus persicae—Spray Test Solvent: 78 parts by weight of acetone • • 1.5 parts by weight of dimethylformamide Emulsifier: alkylaryl polyglycol ether To produce a suitable preparation of active compound, 1 part by weight of active compound is dissolved using the specified parts by weight of solvent and made up with water containing an emulsifier concentration of 1000 ppm until the desired concentration is attained. To produce further test concentrations, the formulation is diluted with emulsifier-containing water. Discs of Chinese cabbage leaves (Brassica pekinensis) infested by all stages of the green peach aphid (Myzus persicae) are sprayed with an active compound preparation of the desired concentration. After 5-6 days, the efficacy in % is determined. 100% means that all the aphids have been killed; 0% means that no aphids have been killed.

For experiment [2], the system named is Myzus persicae. Kind of experiment: Myzus persicae oral test. It is filed as in vivo. The note with it: 120 h, 20 ppm, oral uptake, after 5 days, read-out: efficacy. The method, then: Myzus persicae—Oral Test Solvent: 100 parts by weight of acetone To produce a suitable preparation of active compound, 1 part by weight of active compound is dissolved using the specified parts by weight of solvent and made up with water until the desired concentration is attained. 50 μl of the active compound preparation are transferred into microtitre plates and made up to a final volume of 200 μl with 150 μl of IPL41 insect medium (33%+15% sugar). Subsequently, the plates are sealed with parafilm, which a mixed population of green peach aphids (Myzus persicae) within a second microtitre plate is able to puncture and imbibe the solution through it. After 5 days, the efficacy in % is determined. 100% means that all the aphids have been killed; 0% means that no aphids have been killed.

On to `COc1ccccc1S(=O)(=O)NC(=O)c1cn(C)c(-c2ncccc2Cl)n1` [Example 574], for which, in the experiment on Myzus persicae [1], the pest or weed control at 500 g/ha amounted to 100%. In the experiment with Myzus persicae [2], the pest or weed control at 20 ppm was found to be 100%.

In the case of `COc1ccc(Br)cc1S(=O)(=O)NC(=O)c1cn(C)c(-c2cccc(Cl)c2Cl)n1` [Example 559], the pest or weed control at 500 g/ha in the experiment on Myzus persicae [1] was found to be 100%. For the same compound, in the experiment with Myzus persicae [2], the pest or weed control at 20 ppm stood at 100%. In the case of `COc1ccc(F)cc1S(=O)(=O)NC(=O)c1cn(C)c(-c2ncccc2Cl)n1` [Example 591], the pest or weed control at 500 g/ha in the experiment with Myzus persicae [1] was 100%. Besides, in the experiment on Myzus persicae [2], the pest or weed control at 20 ppm was found to be 100%. Consider `COc1ccc(F)c(S(=O)(=O)NC(=O)c2cn(C)c(-c3c(F)cccc3Cl)n2)c1` [Example 157], for which the pest or weed control at 500 g/ha with Myzus persicae [1] was 100%. The pest or weed control at 20 ppm in the experiment with Myzus persicae [2] is 100%. As to `Cc1ccsc1S(=O)(=O)NC(=O)c1cn(C)c(-c2ncccc2Cl)n1` [Example 592], the pest or weed control at 500 g/ha with Myzus persicae [1] turned out to be 100%. Also, the pest or weed control at 20 ppm with Myzus persicae [2] is 100%. Take `COc1ccc(F)c(S(=O)(=O)NC(=O)c2cn(C)c(-c3c(F)cccc3F)n2)c1` [Example 170]: the pest or weed control at 500 g/ha with Myzus persicae [1] worked out at 90%. Moreover, the pest or weed control at 20 ppm in the experiment on Myzus persicae [2] was 100%. Taken in the same sequence, the figures for `COc1ccc(Cl)c(C)c1S(=O)(=O)NC(=O)c1cn(C)c(-c2c(F)cccc2F)n1` [Example 433] were 90% and 100%. Taken in the same sequence, the figures for `CCn1cc(C(=O)NS(=O)(=O)c2ccccc2C)nc1-c1ccccc1Cl` [Example 22] were 100% and 100%. As for `Cn1cc(C(=O)NS(=O)(=O)c2ccccc2Cl)nc1-c1ncccc1Br` [Example 578], in the experiment on Myzus persicae [1], the pest or weed control at 500 g/ha came out at 100%. For the same compound, the pest or weed control at 20 ppm in the experiment on Myzus persicae [2] was found to be 100%.

Turning to `Cn1cc(C(=O)NS(=O)(=O)c2sc(Cl)cc2Br)nc1-c1c(F)cccc1F` [Example 211], in the experiment on Myzus persicae [1], the pest or weed control at 500 g/ha is 100%. In addition, the pest or weed control at 20 ppm with Myzus persicae [2] amounted to 100%.

With `COc1ccc(Cl)c(S(=O)(=O)NC(=O)c2cc(C)n(-c3ncccc3Br)n2)c1` [Example 301], the pest or weed control at 500 g/ha in the experiment with Myzus persicae [1] was 100%. In the experiment on Myzus persicae [2], the pest or weed control at 20 ppm was 90%. As to `Cn1cc(C(=O)NS(=O)(=O)c2ccccc2Cl)nc1-c1ccccc1OC(F)(F)F` [Example 459], the pest or weed control at 500 g/ha in the experiment on Myzus persicae [1] was determined as 90%. In the experiment on Myzus persicae [2], the pest or weed control at 20 ppm turned out to be 100%. Taken in the same sequence, the figures for `Cn1cc(C(=O)NS(=O)(=O)c2ccccc2Cl)nc1-c1ccccc1F` [Example 94] were 100% and 100%.

Consider `COc1ccc(F)cc1S(=O)(=O)NC(=O)c1cn(C)c(-c2c(F)cccc2F)n1` [Example 17], for which the pest or weed control at 500 g/ha with Myzus persicae [1] is 90%. The pest or weed control at 20 ppm in the experiment with Myzus persicae [2] was 100%.

With `COc1ccc(F)cc1S(=O)(=O)NC(=O)c1cn(C)c(-c2cccc(Cl)c2Cl)n1` [Example 463], the pest or weed control at 500 g/ha with Myzus persicae [1] was 100%. For the same compound, the pest or weed control at 20 ppm with Myzus persicae [2] turned out to be 100%. As for `Cc1ccc(F)c(S(=O)(=O)NC(=O)c2cn(C)c(-c3c(F)cccc3F)n2)c1` [Example 454], in the experiment with Myzus persicae [1], the pest or weed control at 500 g/ha is 90%. In addition, the pest or weed control at 20 ppm in the experiment with Myzus persicae [2] came out at 100%. Taken in the same sequence, the figures for `Cn1cc(C(=O)NS(=O)(=O)c2ccccc2Br)nc1-c1ncccc1Cl` [Example 585] were 100% and 100%. As for `Cn1cc(C(=O)NS(=O)(=O)c2c(Cl)cccc2Br)nc1-c1ncccc1Cl` [Example 589], the pest or weed control at 500 g/ha with Myzus persicae [1] came to 100%. Also, the pest or weed control at 20 ppm in the experiment with Myzus persicae [2] was 100%. Consider `COc1ccc(Cl)c(S(=O)(=O)NC(=O)c2nc(-c3c(F)cccc3F)c(C)[nH]2)c1` [Example 148], for which, in the experiment with Myzus persicae [1], the pest or weed control at 500 g/ha came to 90%. In addition, the pest or weed control at 20 ppm with Myzus persicae [2] was 100%. Regarding `Cn1cc(C(=O)NS(=O)(=O)c2c(Cl)cccc2C(F)(F)F)nc1-c1ncccc1F` [Example 609], in the experiment with Myzus persicae [1], the pest or weed control at 500 g/ha was determined as 90%. Further, the pest or weed control at 20 ppm in the experiment on Myzus persicae [2] amounted to 100%. For the compound `Cn1cc(C(=O)NS(=O)(=O)c2ccccc2Cl)nc1-c1ccccc1[N+](=O)[O-]` [Example 524], the pest or weed control at 500 g/ha in the experiment with Myzus persicae [1] stood at 90%. The pest or weed control at 20 ppm in the experiment on Myzus persicae [2] is 100%. `Cn1cc(C(=O)NS(=O)(=O)c2c(F)cccc2F)nc1-c1ccccc1Cl` [Example 53]: in the experiment on Myzus persicae [1], the pest or weed control at 500 g/ha was 100%. Further, the pest or weed control at 20 ppm in the experiment on Myzus persicae [2] was determined as 100%. In the case of `COc1ccc(Br)c(S(=O)(=O)NC(=O)c2cn(C)c(-c3ncccc3F)n2)c1` [Example 607], the pest or weed control at 500 g/ha in the experiment with Myzus persicae [1] stood at 90%. Moreover, the pest or weed control at 20 ppm in the experiment on Myzus persicae [2] was 100%. With `Cn1cc(C(=O)NS(=O)(=O)c2ccccc2Br)nc1-c1ncccc1F` [Example 564], in the experiment on Myzus persicae [1], the pest or weed control at 500 g/ha is 100%. Further, the pest or weed control at 20 ppm with Myzus persicae [2] stood at 100%. Take `COc1cc(C)ccc1S(=O)(=O)NC(=O)c1cn(C)c(-c2c(F)cccc2F)n1` [Example 447]: the pest or weed control at 500 g/ha in the experiment with Myzus persicae [1] was 90%. For the same compound, in the experiment with Myzus persicae [2], the pest or weed control at 20 ppm was determined as 100%. In the case of `COc1ccccc1S(=O)(=O)NC(=O)c1cn(C)c(-c2c(F)cccc2F)n1` [Example 116], the pest or weed control at 500 g/ha in the experiment with Myzus persicae [1] was 100%. Further, the pest or weed control at 20 ppm in the experiment with Myzus persicae [2] is 100%. Consider `COc1ccc(OC)c(S(=O)(=O)NC(=O)c2cn(C)c(-c3cccc(Cl)c3Cl)n2)c1` [Example 462], for which the pest or weed control at 500 g/ha in the experiment with Myzus persicae [1] stood at 90%. Moreover, the pest or weed control at 20 ppm in the experiment on Myzus persicae [2] was found to be 90%. In the case of `COc1ccccc1S(=O)(=O)NC(=O)c1cn(C)c(-c2c(F)cccc2Cl)n1` [Example 111], in the experiment on Myzus persicae [1], the pest or weed control at 500 g/ha is 100%. Besides, the pest or weed control at 20 ppm in the experiment with Myzus persicae [2] was determined as 100%. `CCn1cc(C(=O)NS(=O)(=O)c2ccccc2C)nc1-c1c(F)cccc1F` [Example 570]: the pest or weed control at 500 g/ha in the experiment on Myzus persicae [1] was 100%. Besides, the pest or weed control at 20 ppm with Myzus persicae [2] came to 100%. Regarding `Cn1cc(C(=O)NS(=O)(=O)c2ccccc2F)nc1-c1c(F)cccc1F` [Example 117], the pest or weed control at 500 g/ha in the experiment on Myzus persicae [1] was determined as 100%. The pest or weed control at 20 ppm in the experiment with Myzus persicae [2] worked out at 90%.

With `COc1ccc(C)cc1S(=O)(=O)NC(=O)c1cn(C)c(-c2c(F)cccc2F)n1` [Example 390], the pest or weed control at 500 g/ha with Myzus persicae [1] came out at 100%. Moreover, in the experiment with Myzus persicae [2], the pest or weed control at 20 ppm was 100%. Turning to `Cn1cc(C(=O)NS(=O)(=O)c2ccccc2Cl)nc1-c1ccccc1C(F)(F)F` [Example 115], the pest or weed control at 500 g/ha in the experiment on Myzus persicae [1] was determined as 100%. Also, the pest or weed control at 20 ppm in the experiment with Myzus persicae [2] is 90%. Consider `Cc1ccccc1S(=O)(=O)NC(=O)c1nc(-c2c(F)cccc2F)n(C)n1` [Example 159], for which, in the experiment with Myzus persicae [1], the pest or weed control at 500 g/ha came to 90%. Also, in the experiment with Myzus persicae [2], the pest or weed control at 20 ppm worked out at 100%. For the compound `Cn1cc(C(=O)NS(=O)(=O)c2ccccc2C(F)(F)F)nc1-c1ccccc1F` [Example 30], the pest or weed control at 500 g/ha in the experiment with Myzus persicae [1] is 90%. Further, in the experiment with Myzus persicae [2], the pest or weed control at 20 ppm came to 100%. For the compound `Cn1cc(C(=O)NS(=O)(=O)c2ccccc2Cl)nc1-c1cccnc1Cl` [Example 490], the pest or weed control at 500 g/ha in the experiment on Myzus persicae [1] is 90%. The pest or weed control at 20 ppm in the experiment on Myzus persicae [2] came to 100%. Taken in the same sequence, the figures for `Cc1cccc(C(F)(F)F)c1S(=O)(=O)NC(=O)c1cn(C)c(-c2ncccc2F)n1` [Example 563] were 100% and 100%. Turning to `Cn1cc(C(=O)NS(=O)(=O)CC(F)(F)F)nc1-c1ccccc1Cl` [Example 66], in the experiment on Myzus persicae [1], the pest or weed control at 500 g/ha amounted to 100%. In the experiment on Myzus persicae [2], the pest or weed control at 20 ppm is 100%. As for `COc1ccccc1S(=O)(=O)NC(=O)c1cn(C)c(-c2sccc2Cl)n1` [Example 549], in the experiment with Myzus persicae [1], the pest or weed control at 500 g/ha came out at 100%. The pest or weed control at 20 ppm in the experiment on Myzus persicae [2] was determined as 100%. With `CCc1[nH]c(-c2cccc(OC)c2)nc1C(=O)NS(=O)(=O)c1ccccc1Cl` [Example 122], the pest or weed control at 500 g/ha in the experiment with Myzus persicae [1] came out at 90%. On the same count and under the same terms, in the case of `COc1cccc(C(F)(F)F)c1S(=O)(=O)NC(=O)c1cn(C)c(-c2c(F)cccc2F)n1` [Example 374] it was 100%; in that of `CCc1ccc(OC)c(S(=O)(=O)NC(=O)c2cn(C)c(-c3c(F)cccc3F)n2)c1` [Example 391], 90%; in that of `Cn1cc(C(=O)NS(=O)(=O)c2ccccc2)nc1-c1ccccc1Cl` [Example 229], 100%. Same read-out and setting: in the case of `Cn1cc(C(=O)NS(=O)(=O)c2ccccc2C(F)(F)F)nc1-c1c(F)cc(F)cc1F` [Example 5] it was 90%; in that of `CCc1[nH]c(-c2cc(F)cc(F)c2)nc1C(=O)NS(=O)(=O)C(C)C` [Example 127], 90%. The same measure, in the same setting: in the case of `COc1ccc(OC)c(S(=O)(=O)NC(=O)c2cn(C)c(-c3ncccc3F)n2)c1` [Example 608] it was 100%. Consider `CCOc1ccccc1S(=O)(=O)NC(=O)c1cn(C)c(-c2c(F)cccc2Cl)n1` [Example 154], for which the pest or weed control at 500 g/ha in the experiment with Myzus persicae [1] was 90%. The same measure, in the same setting: in the case of `Cn1cc(C(=O)NS(C)(=O)=O)nc1-c1ccccc1Cl` [Example 65] it was 90%; in that of `Cn1cc(C(=O)NS(C)(=O)=O)nc1-c1c(Cl)cccc1Cl` [Example 83], 90%. Take `Cn1cc(C(=O)NS(=O)(=O)c2ccc(C#N)cc2)nc1-c1ccccc1Cl` [Example 168]: in the experiment on Myzus persicae [1], the pest or weed control at 500 g/ha came to 90%.

Source of the values: patent US20200288710A1, “SUBSTITUTED SULPHONAMIDES FOR CONTROLLING ANIMAL PESTS” (BAYER CROPSCIENCE AKTIENGESELLSCHAFT, priority 2016, published 2020).
